In patent US20230416199A1, “INHIBITORS OF AMINO ACID TRANSPORT” (ICAHN SCHOOL OF MEDICINE AT MOUNT SINAI, priority 2020, published 2023):

What was measured:
Format in all cases: cell-based
rASCT2 = molecular target: T1, rASCT2 (Rattus norvegicus, UniProt D3ZJ25); assay: Electrophysiology (whole-cell current recording) of transfected HEK293 cells, rASCT2; conditions: apparent Ki in the absence of substrate, HEK293, mean ± SD; read-out: Ki rASCT2
T1 construct: expressed in transfected cells; host or cells: HEK293 (ATCC CRL-11268), transient transfection
T1 sequence (D3ZJ25 1-555): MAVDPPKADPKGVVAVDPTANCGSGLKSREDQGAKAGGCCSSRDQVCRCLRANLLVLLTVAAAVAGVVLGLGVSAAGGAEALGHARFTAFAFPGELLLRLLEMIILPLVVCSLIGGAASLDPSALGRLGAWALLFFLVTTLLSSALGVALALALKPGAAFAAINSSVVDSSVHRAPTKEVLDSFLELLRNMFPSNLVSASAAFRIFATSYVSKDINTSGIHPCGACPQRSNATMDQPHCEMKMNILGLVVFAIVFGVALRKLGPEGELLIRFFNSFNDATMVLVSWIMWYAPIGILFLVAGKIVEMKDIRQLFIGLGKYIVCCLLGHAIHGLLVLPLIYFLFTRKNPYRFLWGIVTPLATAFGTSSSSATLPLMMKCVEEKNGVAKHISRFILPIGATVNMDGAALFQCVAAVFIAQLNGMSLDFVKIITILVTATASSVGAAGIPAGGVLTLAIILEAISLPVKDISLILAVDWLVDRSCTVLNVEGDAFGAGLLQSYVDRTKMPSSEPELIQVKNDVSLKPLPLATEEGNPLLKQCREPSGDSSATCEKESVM
Description: (§1) Human embryonic kidney 293 (HEK293, ATCC CRL-11268) cells were cultured in DMEM media supplemented with 10% (v v) fetal bovine serum (FBS), 2 mM glutamine, 1% penicillin streptomycin solution, 1 mM sodium pyruvate and non-essential amino acids. Cells were maintained at 37° C. in a fully humidified atmosphere containing 5% CO2. rASCT2, hASCT2, hASCT1, EAAT1, EAAT2, EAAC1, EAAT5 and YFP complementary DNAs were each used to transiently transfect HEK293 using POLYPLUS Jet-prime transfection reagent. Cells were analyzed using electrophysiological techniques 24-40 hours after transfection.
(§2) Stock solutions of inhibitor was prepared in dimethyl sulfoxide (DMSO) up to 100 mM. Dilutions to working concentrations were made using external buffer. […] For rASCT2, hASCT2 and hASCT1, external buffer contained 140 mM NaCl, 2 mM MgCl2, 2 mM CaCl2), and 10 mM HEPES, pH 7.40 while internal pipette solution comprised of 130 mM NaSCN, 2 mM MgCl2, 10 mM EGTA, 10 mM HEPES and 10 mM alanine, pH 7.40. For specificity experiments with EAAT1, EAAT2, EAAC1 and EAAT5, internal solution contained 10 mM glutamate instead of alanine. Compounds were applied to HEK293 cells expressing DNA of interest suspended from a current recording electrode in whole cell configuration through a rapid solution exchange device. Cells are immersed in external buffer bath used to dissolve the inhibitors. The open pipette resistance was between 3 and 6 MΩ. Series resistance was not compensated in these experiments due to relatively small currents. Currents traces were recorded using an Adams and List EPC7 amplifier and digitized using a Molecular Devices Digidata A/D converter.
(§3) Linear and nonlinear curve fitting of the experimental data were analyzed using MicroCal Origin software. Nonlinear dose-response relationships were fitted with a Michaelis-Menten-like equation to obtain apparent Ki values in the absence of substrate (see TABLE 2 for Ki values). The figures show representative current traces and dose-response curves for hACST2 and rASCT2, used to obtain Ki values in TABLE 2 for compound SN 40. At least four experiments were performed with at least three different cells. Error bars in all graphs, e.g., in FIG. 1B and FIG. 1C and tables (Ki values) represent mean±SD.

hASCT2 = molecular target: T2, hASCT2 (Homo sapiens, UniProt Q15758); assay: Electrophysiology (whole-cell current recording) of transfected HEK293 cells, hASCT2; conditions: apparent Ki in the absence of substrate, HEK293, mean ± SD; read-out: Ki hASCT2
T2 construct: expressed in transfected cells; host or cells: HEK293 (ATCC CRL-11268), transient transfection
T2 sequence (Q15758 1-541): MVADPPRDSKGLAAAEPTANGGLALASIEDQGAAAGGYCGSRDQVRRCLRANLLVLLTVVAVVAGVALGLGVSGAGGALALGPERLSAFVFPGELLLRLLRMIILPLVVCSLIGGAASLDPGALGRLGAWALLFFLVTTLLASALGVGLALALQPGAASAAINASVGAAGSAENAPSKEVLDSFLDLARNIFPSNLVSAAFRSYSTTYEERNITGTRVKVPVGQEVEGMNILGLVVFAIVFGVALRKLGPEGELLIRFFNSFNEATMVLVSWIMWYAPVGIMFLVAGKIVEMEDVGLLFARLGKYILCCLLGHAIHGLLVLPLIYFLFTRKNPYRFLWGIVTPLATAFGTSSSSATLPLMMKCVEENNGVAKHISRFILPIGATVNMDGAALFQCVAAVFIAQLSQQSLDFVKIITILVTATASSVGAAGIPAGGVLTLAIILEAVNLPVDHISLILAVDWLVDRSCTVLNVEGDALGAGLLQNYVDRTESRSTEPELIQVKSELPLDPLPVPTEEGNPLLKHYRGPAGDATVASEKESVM
Description: as §1, §2, §3

hASCT1 = molecular target: T3, hASCT1 (Homo sapiens, UniProt P43007); assay: Electrophysiology (whole-cell current recording) of transfected HEK293 cells, hASCT1; conditions: apparent Ki in the absence of substrate, HEK293, mean ± SD; read-out: Ki hASCT1
T3 construct: expressed in transfected cells; host or cells: HEK293 (ATCC CRL-11268), transient transfection
T3 sequence (P43007 1-532): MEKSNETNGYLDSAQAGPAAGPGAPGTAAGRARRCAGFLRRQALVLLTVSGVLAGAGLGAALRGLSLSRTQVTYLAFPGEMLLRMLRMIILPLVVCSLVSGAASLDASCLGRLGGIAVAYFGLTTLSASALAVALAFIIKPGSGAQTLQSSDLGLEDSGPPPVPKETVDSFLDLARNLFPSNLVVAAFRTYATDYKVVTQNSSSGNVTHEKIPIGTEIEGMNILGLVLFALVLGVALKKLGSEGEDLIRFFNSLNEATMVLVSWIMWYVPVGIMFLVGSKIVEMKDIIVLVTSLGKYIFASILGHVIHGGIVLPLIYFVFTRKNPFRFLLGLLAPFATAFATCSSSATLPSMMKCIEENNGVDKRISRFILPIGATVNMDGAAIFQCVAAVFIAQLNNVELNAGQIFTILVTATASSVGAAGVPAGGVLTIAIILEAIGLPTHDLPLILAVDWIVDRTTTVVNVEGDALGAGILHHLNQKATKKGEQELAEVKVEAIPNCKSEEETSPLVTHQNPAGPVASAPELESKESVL
Description: as §1, §2, §3

SMILES | Ki (rASCT2) [µM] | Ki (hASCT2) [µM] | Ki (hASCT1) [µM]
N[C@@H](COC(=O)c1ccc(-c2cccc(F)c2)cc1F)C(=O)O [SN 24] | 19.7 ± 3.1 | – | –
N[C@@H](COC(=O)c1ccc(C(O)c2ccccc2)cc1)C(=O)O (stereo partly drawn) [SN 27] | 5.17 ± 1.2 | – | –
N[C@@H](CCOC(=O)c1ccc(-c2ccccc2)cc1)C(=O)O [SN 33] | 3.51 ± 0.6 | 3.5 ± 0.6 | –
N[C@H](C(=O)O)[C@@H](O)COC(=O)c1ccc(-c2ccccc2)cc1 [SN 34] | 3.63 ± 1.1 | 10 ± 2.8 | –
N[C@H](C(=O)O)[C@H](O)COC(=O)c1ccc(-c2ccccc2)cc1 [SN 35] | 4.83 ± 1 | 0.84 ± 0.2 | –
N[C@H](C(=O)O)[C@H](CO)OC(=O)c1ccc(-c2ccccc2)cc1 [SN 36] | 6.02 ± 1.8 | 6.38 ± 1.2 | –
N[C@@H](COCc1ccc(-c2ccccc2)cc1)C(=O)O [SN 38] | 0.38 ± 0.17 | – | –
O=C(O)[C@@H]1C[C@H](NCc2ccc(-c3ccc(C(F)(F)F)cc3)cc2)CN1 [SN 41] | – | 1.15 ± 0.9 | –
O=C(Nc1cccc(CN[C@@H]2CN[C@H](C(=O)O)C2)c1)c1ccccc1 [SN 42] | 74.7 ± 18.3 | 103 ± 11.2 | 172 ± 24
O=C(Nc1ccc(CN[C@@H]2CN[C@H](C(=O)O)C2)cc1)c1ccccc1 [SN 43] | 27.2 ± 1.9 | 33.6 ± 2.5 | 20 ± 2.3
O=C(Nc1cccc(C(=O)N[C@@H]2CN[C@H](C(=O)O)C2)c1)c1ccccc1 [SN 47] | 151 ± 13.3 | 227 ± 34.2 | 141 ± 17.6

Continued by falling Ki (rASCT2), values first:

Ki (rASCT2) [µM] | Ki (hASCT2) [µM] | Ki (hASCT1) [µM] | SMILES
22 ± 4.5 | – | – | N[C@@H](COC(=O)c1ccc(C(=O)c2ccccc2)cc1)C(=O)O [SN 26]
12.4 ± 1.8 | 17.3 ± 2.1 | 7.9 ± 0.5 | O=C(Nc1ccc(C(=O)N[C@@H]2CN[C@H](C(=O)O)C2)cc1)c1ccccc1 [SN 48]
10 ± 5.1 | – | – | O=C(O[C@@H]1CN[C@H](C(=O)O)C1)c1c2ccccc2cc2ccccc12 [SN 22]
7.46 ± 0.9 | 2.71 ± 0.5 | – | N[C@H](C(=O)O)[C@@H](CO)OC(=O)c1ccc(-c2ccccc2)cc1 [SN 37]
1.68 ± 0.6 | 4.69 ± 1.1 | – | O=C(N[C@@H]1CN[C@H](C(=O)O)C1)c1ccc(-c2ccccc2)cc1 [SN 45]
